Source: US20240158369A1, “PYRIMIDINE COMPOUND AS WEE-1 INHIBITOR” (WIGEN BIOMEDICINE TECHNOLOGY (SHANGHAI) CO., LTD., priority 2021, published 2024)

These compounds were tested against recombinant protein Wee-1 (Homo sapiens (Human), UniProt P30291) (assay: HTRF assay for inhibiting enzymatic activity of recombinant protein Wee-1). Details: compounds up to 200 nM, read-out: (IC50) Inhibitory activity against recombinant protein Wee-1.
Type: biochemical
Procedure: The inhibitory effect of the compounds on the enzyme activity of recombinant protein Wee-1 was determined by HTRF. The procedures are as follows:
After DMSO or serially diluted compounds (up to 200 nM, 1:5 diluted) and recombinant proteins were co-incubated in a kinase buffer at 37° C. for 30 min before Fluorescein-PolyGAT and ATP were added, and the reaction was initiated by addition of a substrate. After incubation at room temperature for 90 min, an antibody and a detection solution were added, and after further incubation at room temperature for 60 min, fluorescence values were detected (excitation wavelength: 340 nm, emission wavelengths: 495 and 520 nm). The 520 nm/495 nm fluorescence intensity ratio value was calculated, and compared with that of the DMSO group, and then the inhibition percentages and IC50 values of the compounds were calculated.

recombinant protein Wee-1, sequence (P30291 whole entry): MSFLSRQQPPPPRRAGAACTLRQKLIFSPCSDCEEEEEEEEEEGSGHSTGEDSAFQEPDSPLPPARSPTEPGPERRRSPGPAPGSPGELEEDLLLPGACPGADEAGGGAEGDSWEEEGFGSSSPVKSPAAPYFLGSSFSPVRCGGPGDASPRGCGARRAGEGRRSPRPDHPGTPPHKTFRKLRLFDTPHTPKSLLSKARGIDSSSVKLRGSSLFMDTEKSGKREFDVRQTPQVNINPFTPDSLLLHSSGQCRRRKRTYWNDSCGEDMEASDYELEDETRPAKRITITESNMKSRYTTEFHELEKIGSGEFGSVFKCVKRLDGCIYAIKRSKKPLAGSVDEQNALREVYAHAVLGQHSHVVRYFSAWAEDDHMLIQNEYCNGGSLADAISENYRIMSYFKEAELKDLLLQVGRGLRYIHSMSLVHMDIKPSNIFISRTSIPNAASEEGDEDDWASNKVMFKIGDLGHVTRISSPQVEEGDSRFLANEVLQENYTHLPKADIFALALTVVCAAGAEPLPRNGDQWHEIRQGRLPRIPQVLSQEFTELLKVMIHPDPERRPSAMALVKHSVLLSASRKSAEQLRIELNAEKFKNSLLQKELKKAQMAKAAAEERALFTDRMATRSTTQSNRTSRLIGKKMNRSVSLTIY

| SMILES | IC50 [nM] |
| --- | --- |
| CC(C)Oc1cc(Nc2ncc(C#N)c(Nc3cccc(N=S(C)(C)=O)n3)n2)cc2c1CCN(C)C2 [Compound 24] | ≤ 10 |
| CCOc1cc(Nc2ncc(C#N)c(Nc3cccc(N=S(C)(C)=O)n3)n2)cc2c1CCN(C)C2 [Compound 23] | ≤ 10 |
| CCN1CCc2ccc(Nc3ncc(C#N)c(Nc4cccc(N=S(C)(C)=O)n4)n3)cc2C1 [Compound 45] | ≤ 10 |
| CN1CCc2c(Cl)cc(Nc3ncc(C#N)c(Nc4cccc(N=S(C)(C)=O)n4)n3)cc2C1 [Compound 26] | ≤ 10 |
| CN1CCc2c(cc(Nc3ncc(C#N)c(Nc4cccc(N=S(C)(C)=O)n4)n3)cc2-c2ccoc2)C1 [Compound 114] | ≤ 10 |
| CN1CCc2ccc(Nc3ncc(C#N)c(Nc4cc5ccccc5c(N=S(C)(C)=O)n4)n3)cc2C1 [Compound 71] | ≤ 10 |
| CN1CCSc2ccc(Nc3ncc(C#N)c(Nc4cccc(N=S(C)(C)=O)n4)n3)cc2C1 [Compound 58] | ≤ 10 |
| COc1ccc(Nc2nc(Nc3ccc4c(c3)CN(C)CC4)ncc2C#N)nc1N=S(C)(C)=O [Compound 84] | ≤ 10 |
| CN1CCc2ccc(Nc3ncc(C#N)c(Nc4cncc(N=S(C)(C)=O)c4)n3)cc2C1 [Compound 66] | ≤ 10 |
| CN1CCc2c(CN)cc(Nc3ncc(C#N)c(Nc4cccc(N=S(C)(C)=O)n4)n3)cc2C1 [Compound 134] | ≤ 10 |
| CS(C)(=O)=Nc1cccc(Nc2nc(Nc3ccc4c(c3)CN(CCO)CC4)ncc2C#N)n1 [Compound 48] | ≤ 10 |
| CN1CCc2ccc(Nc3ncc(C#N)c(Nc4cc(N=S(C)(C)=O)ccn4)n3)cc2C1 [Compound 67] | ≤ 10 |
| CN1CCc2c(cc(Nc3ncc(C#N)c(Nc4ccc(F)c(N=S(C)(C)=O)n4)n3)cc2C2CCC2)C1 [Compound 98] | ≤ 10 |
| COc1cc(Nc2ncc(C#N)c(Nc3ccc(F)c(N=S(C)(C)=O)n3)n2)cc2c1CCN(C)C2 [Compound 90] | ≤ 10 |
| CN1CCc2c(cc(Nc3ncc(C#N)c(Nc4cccc(N=S(C)(C)=O)n4)n3)cc2C(F)F)C1 [Compound 21] | ≤ 10 |
| CN(C)C1CCc2ccc(Nc3ncc(C#N)c(Nc4cccc(N=S(C)(C)=O)n4)n3)cc2C1 (stereo not shown) [Compound 51] | ≤ 10 |
| CCc1cc(Nc2ncc(C#N)c(Nc3nccc(N=S(C)(C)=O)n3)n2)cc2c1CCN(C)C2 [Compound 143] | ≤ 10 |
| CN1CCc2ccc(Nc3ncc(C#N)c(Nc4cc5c(c(N=S(C)(C)=O)n4)CCC5)n3)cc2C1 [Compound 83] | ≤ 10 |
| CN1CCOc2ccc(Nc3ncc(C#N)c(Nc4cccc(N=S(C)(C)=O)n4)n3)cc2C1 [Compound 57] | ≤ 10 |
| COc1cc(Nc2ncc(C#N)c(Nc3cccc(N=S(C)(C)=O)n3)n2)cc2c1C(C)(C)CN(C)C2 [Compound 40] | ≤ 10 |
| CC(C)c1cc(Nc2ncc(C#N)c(Nc3cccc(N=S(C)(C)=O)n3)n2)cc2c1C1(CC1)CN(C)C2 [Compound 33] | ≤ 10 |
| COCCN1CCc2ccc(Nc3ncc(C#N)c(Nc4cccc(N=S(C)(C)=O)n4)n3)cc2C1 [Compound 49] | ≤ 10 |
| CN1CCCc2ccc(Nc3ncc(C#N)c(Nc4cccc(N=S(C)(C)=O)n4)n3)cc2C1 [Compound 54] | ≤ 10 |
| CN1CCc2ccc(Nc3ncc(C#N)c(Nc4cncc(N=S(C)(C)=O)n4)n3)cc2C1 [Compound 68] | ≤ 10 |

| SMILES | IC50 [nM] |
| --- | --- |
| CC(C)c1cc(Nc2ncc(C#N)c(Nc3cccc(N=S(C)(C)=O)n3)n2)cc2c1C(C)(C)CN(C)C2 [Compound 38] | ≤ 10 |
| CN1CCc2ccc(Nc3ncc(C#N)c(Nc4nc(N=S(C)(C)=O)cc5[nH]ccc45)n3)cc2C1 [Compound 81] | ≤ 10 |
| CN1CCc2ccc(Nc3ncc(C#N)c(Nc4nc(N=S(C)(C)=O)cc5c4CCN5)n3)cc2C1 [Compound 82] | ≤ 10 |
| CN1Cc2cc(Nc3ncc(C#N)c(Nc4cccc(N=S(C)(C)=O)n4)n3)ccc2C(C)(C)C1 [Compound 35] | ≤ 10 |
| CCc1cc(Nc2ncc(C#N)c(Nc3cccc(N=S(C)(C)=O)n3)n2)cc2c1CCN(CC)C2 [Compound 141] | ≤ 10 |
| CCc1cc(Nc2ncc(C#N)c(Nc3cccc(N=S(C)(=O)CC)n3)n2)cc2c1CCN(C)C2 (stereo not shown) [Compound 157] | ≤ 10 |
| CCc1cc(Nc2ncc(C#N)c(Nc3cccc(N=S(C)(C)=O)n3)n2)cc2c1CCNC2 [Compound 151] | ≤ 10 |
| CCc1cc(Nc2ncc(C#N)c(Nc3cccc(N=S(C)(C)=O)n3)n2)cc2c1C(C)(C)CN(C)C2 [Compound 37] | ≤ 10 |
| CN1CCc2ccc(Nc3ncc(C#N)c(Nc4nc(N=S(C)(C)=O)cc5ccccc45)n3)cc2C1 [Compound 72] | ≤ 10 |
| CN1CCc2ccc(Nc3ncc(C#N)c(Nc4ccnc(N=S(C)(C)=O)n4)n3)cc2C1 [Compound 69] | ≤ 10 |
| CN1CCc2c(cc(Nc3ncc(C#N)c(Nc4ccc(F)c(N=S(C)(C)=O)n4)n3)cc2C2=CCCC2)C1 [Compound 100] | ≤ 10 |
| CN(C)C1CCCc2ccc(Nc3ncc(C#N)c(Nc4cccc(N=S(C)(C)=O)n4)n3)cc2C1 (stereo not shown) [Compound 53] | ≤ 10 |
| CN1Cc2cc(Nc3ncc(C#N)c(Nc4cccc(N=S(C)(C)=O)n4)n3)cc(C3CC3)c2C2(CC2)C1 [Compound 32] | ≤ 10 |
| CN1CCc2ccc(Nc3ncc(C#N)c(-n4ccc5c(N=S(C)(C)=O)cccc54)n3)cc2C1 [Compound 76] | ≤ 10 |
| CN1CCc2c(cc(Nc3ncc(C#N)c(Nc4ccnc(N=S(C)(C)=O)n4)n3)cc2C2CC2)C1 [Compound 140] | ≤ 10 |
| CCc1cc(Nc2ncc(C#N)c(Nc3cccc(N=S(C)(C)=O)n3)n2)cc2c1C1(CC1)CN(C)C2 [Compound 31] | ≤ 10 |
| CN1CCc2c(cc(Nc3ncc(C#N)c(Nc4cccc(N=S(C)(C)=O)n4)n3)cc2C(C)(C)C)C1 [Compound 86] | ≤ 10 |
| CN1CCc2c(cc(Nc3ncc(C#N)c(Nc4cccc(N=S(C)(C)=O)n4)n3)cc2N2CCC2)C1 [Compound 95] | ≤ 10 |
| CN1CCc2ccc(Nc3ncc(C#N)c(Nc4ccnc(N=S(C)(C)=O)c4)n3)cc2C1 [Compound 65] | ≤ 10 |
| CN1CCc2c(cc(Nc3ncc(C#N)c(Nc4cccc(N=S(C)(C)=O)n4)n3)cc2-c2ccncc2)C1 [Compound 126] | ≤ 10 |
| CN1CCc2ccc(Nc3ncc(C#N)c(Nc4cccc(N=S(C)(C)=O)n4)n3)cc2C12CC2 [Compound 103] | ≤ 10 |
| CCc1cc(Nc2ncc(C#N)c(Nc3ccc(F)c(N=S(C)(C)=O)n3)n2)cc2c1CCN(C)C2 [Compound 89] | ≤ 10 |
| CN1CCc2ccc(Nc3ncc(C#N)c(Nc4cccc(N=S(C)(C)=O)n4)n3)cc2C1(C)C [Compound 104] | ≤ 10 |
| COc1cc(Nc2ncc(C#N)c(Nc3cccc(N=S(C)(C)=O)n3)n2)cc2c1C1(CC1)CN(C)C2 [Compound 34] | ≤ 10 |

| SMILES | IC50 [nM] |
| --- | --- |
| CN(C)C1CC=Cc2ccc(Nc3ncc(C#N)c(Nc4cccc(N=S(C)(C)=O)n4)n3)cc2C1 (stereo not shown) [Compound 56] | ≤ 10 |
| CN1CCc2c(cc(Nc3ncc(C#N)c(Nc4ccc(F)c(N=S(C)(C)=O)n4)n3)cc2C2(C)CC2)C1 [Compound 102] | ≤ 10 |
| Cc1cc(Nc2ncc(C#N)c(Nc3cccc(N=S(C)(C)=O)n3)n2)cc2c1C(C)(C)CN(C)C2 [Compound 36] | ≤ 10 |
| Cc1cc(Nc2ncc(C#N)c(Nc3ccc4c(n3)N=S(C)(=O)C4)n2)cc2c1CCN(C)C2 (stereo not shown) [Compound 88] | > 50 |
| CN1Cc2cc(Nc3ncc(C#N)c(Nc4cccc(N=S(C)(C)=O)n4)n3)cc(C3CC3)c2C(C)(C)C1 [Compound 39] | ≤ 10 |
| CN1CCc2c(Br)cc(Nc3ncc(C#N)c(Nc4cccc(N=S(C)(C)=O)n4)n3)cc2C1 [Compound 27] | ≤ 10 |
| CC(C)c1cc(Nc2ncc(C#N)c(Nc3ccc(F)c(N=S(C)(C)=O)n3)n2)cc2c1CCN(C)C2 [Compound 91] | ≤ 10 |
| CN1CCc2c(CCCN)cc(Nc3ncc(C#N)c(Nc4cccc(N=S(C)(C)=O)n4)n3)cc2C1 [Compound 136] | ≤ 10 |
| CCOc1cc(Nc2ncc(C#N)c(Nc3ccc(F)c(N=S(C)(C)=O)n3)n2)cc2c1CCN(C)C2 [Compound 92] | ≤ 10 |
| CN1CCc2c(cc(Nc3ncc(C#N)c(Nc4nccc(N=S(C)(C)=O)n4)n3)cc2C2CC2)C1 [Compound 139] | ≤ 10 |
| CCc1cc(Nc2ncc(C#N)c(Nc3cccc(N=S4(=O)CCCC4)n3)n2)cc2c1CCN(C)C2 [Compound 160] | ≤ 10 |
| CN1CCc2c(CCN)cc(Nc3ncc(C#N)c(Nc4cccc(N=S(C)(C)=O)n4)n3)cc2C1 [Compound 135] | ≤ 10 |
| CCc1cc(Nc2ncc(C#N)c(Nc3cccc(N=S4(=O)CCC4)n3)n2)cc2c1CCN(C)C2 [Compound 159] | ≤ 10 |
| CCCc1cc(Nc2ncc(C#N)c(Nc3cccc(N=S(C)(C)=O)n3)n2)cc2c1CCN(C)C2 [Compound 149] | ≤ 10 |
| CCc1cc(Nc2ncc(C#N)c(Nc3cncc(N=S(C)(C)=O)n3)n2)cc2c1CCN(C)C2 [Compound 142] | ≤ 10 |
| Cc1cc(Nc2ncc(C#N)c(Nc3cccc(N=S(C)(C)=O)n3)n2)cc2c1C1(CC1)CN(C)C2 [Compound 30] | ≤ 10 |
| CN(C)CCN1CCc2ccc(Nc3ncc(C#N)c(Nc4cccc(N=S(C)(C)=O)n4)n3)cc2C1 [Compound 50] | ≤ 10 |
| Cc1cc(Nc2ncc(C#N)c(Nc3nc(N=S(C)(C)=O)ccc3F)n2)cc2c1CCN(C)C2 [Compound 75] | ≤ 10 |
| CS(C)(=O)=Nc1cccc(Nc2nc(Nc3ccc4c(c3)CN(C3CC3)CC4)ncc2C#N)n1 [Compound 47] | ≤ 10 |
| CN1CCc2c(CC3CCC3)cc(Nc3ncc(C#N)c(Nc4cccc(N=S(C)(C)=O)n4)n3)cc2C1 [Compound 125] | ≤ 10 |
| CN1Cc2ccc(Nc3ncc(C#N)c(Nc4cccc(N=S(C)(C)=O)n4)n3)cc2C1 [Compound 59] | ≤ 10 |
| Cc1cc(Nc2ncc(C#N)c(Nc3ccc(F)c(N=S(C)(C)=O)n3)n2)cc2c1CCN(C)C2 [Compound 73] | ≤ 10 |
